Assay results from US20150374673A1, “Combination Therapy for the Treatment of Nosocomial Pneumonia” (priority 2013, published 2015).

What was measured:
[1] = Serum and ELF pharmacokinetics of ceftazidime regimens (human simulated and directed ELF fT>MIC) in infected mice; format: in vivo, female ICR mice; details: MICs of 32 μg/mL; ceftazidime directed ELF fT>MIC regimen
Procedure: Confirmatory pharmacokinetic studies were undertaken in infected mice and pharmacodynamic analyses and an assessment of ELF fT>MIC was made from the resulting concentration-time profile.
It has been observed in surveillance studies that the MIC90 for ceftazidime-avibactam against P. aeruginosa is 8 μg/mL (10-12). Given this, there are few isolates with higher MICs and the number that would grow within the murine lung infection model is even less. […] Doses of the previous humanized regimen described above were […] throughout the dosing period and further pharmacokinetic studies were performed. […] Mice were euthanized and serum and BAL samples were collected, as described above, at predetermined times.

P. aeruginosa = assay: Checkerboard assay, mean FICI; format: cell-based
Procedure: (§1) All MIC determinations including those performed in the checkerboard assay were done in cation-adjusted Mueller-Hinton broth (purchased from Becton Dickinson, Oxford UK).
(§2) Initial MIC data were determined by microbroth dilution methods as recommended by CLSI (2012b). Checkerboards were made in accordance with the method given by Pillai et. al., ? Antimicrobial Combinations in Antibiotics, LABORATORY MEDICINE (Lorian Ed., 3rd Ed. (2003)) p. 365-440 as per standard microbroth dilution tests but with agents in combination. […] A final avibactam concentration of 4 mg/L was used throughout the study. Antibacterial agents were combined into microtitre plates using the Evolution III liquid handling system.
(§3) Checkerboard plates were inoculated and incubated in accordance with CLSI guidelines (2012b) at 35±2° C. in ambient air for 16-20 h. MICs were recorded the following day as the lowest concentration or combination of concentrations required to inhibit all visible growth. From the MIC data, FICIs were calculated for each checkerboard according to the method of Meletiadis et. al., Defining Fractional Inhibitory Concentration Index Cutoffs for Additive Interactions Based on Self-Drug Additive Combinations, Monte Carlo Simulation Analysis and in vitro-in vivo Correlation Data for Antifungal Drug Combinations Against Aspergillus fumigatus, AAC 54:602-09 (2010).
(§4) FICI=FICA+FICB=(CA/MICA)+(CB/MICB)
(§5) As each checkerboard gives a number of FICI values, an arithmetic mean is calculated from all values to give the mean FICI for two agents combined against one isolate. Mean FICIs were interpreted by the following criteria given by Odds (2003) which are now the accepted criteria by most journals: […]

S. aureus = assay: Checkerboard assay, mean FICI; format: cell-based
Procedure: as §1, §2, §3, §4, §5

E. cloacae = assay: Checkerboard assay, mean FICI; format: cell-based
Procedure: as §1, §2, §3, §4, §5

CC(C)(O/N=C(\C(=O)N[C@@H]1C(=O)N2C(C(=O)[O-])=C(C[n+]3ccccc3)CS[C@H]12)c1csc(N)n1)C(=O)O [ceftazidime, (6R,7R)-7-[[(2Z)-2-(2-amino-1,3-thiazol-4-yl)-2-(1-hydroxy-2-methyl-1-oxopropan-2-yl)oxyiminoacetyl]amino]-8-oxo-3-(pyridin-1-ium-1-ylmethyl)-5-thia-1-azabicyclo[4.2.0]oct-2-ene-2-carboxylate pentahydrate]
ELF fT>MIC [1]: 12%
Mean FICI (P. aeruginosa; with Col, isolate 16 P. aeruginosa Basal MICs): 1.24
Mean FICI (P. aeruginosa; with Col, isolate 17 P. aeruginosa Derepressed AmpC): 1.21
Mean FICI (P. aeruginosa; with Col, isolate 18 P. aeruginosa Derepressed AmpC): 1.23
Mean FICI (P. aeruginosa; with Col, isolate 19 P. aeruginosa PER): 1.43
Mean FICI (P. aeruginosa; with Col, isolate 20 P. aeruginosa KPC-2): 1.21
Mean FICI (P. aeruginosa; with Col, isolate 21 P. aeruginosa KPC-2): 1.34
Mean FICI (P. aeruginosa; with Lev, isolate 16 P. aeruginosa Basal MICs): 1.19
Mean FICI (P. aeruginosa; with Lev, isolate 17 P. aeruginosa Derepressed AmpC): 1.10
Mean FICI (P. aeruginosa; with Lev, isolate 18 P. aeruginosa Derepressed AmpC): 1.21
Mean FICI (P. aeruginosa; with Lev, isolate 19 P. aeruginosa PER): 0.99
Mean FICI (P. aeruginosa; with Lev, isolate 20 P. aeruginosa KPC-2): 1.13
Mean FICI (P. aeruginosa; with Lev, isolate 21 P. aeruginosa KPC-2): 1.12
Mean FICI (P. aeruginosa; with Tig, isolate 16 P. aeruginosa Basal MICs): 1.05
Mean FICI (P. aeruginosa; with Tig, isolate 17 P. aeruginosa Derepressed AmpC): 1.23
Mean FICI (P. aeruginosa; with Tig, isolate 18 P. aeruginosa Derepressed AmpC): 1.15
Mean FICI (P. aeruginosa; with Tig, isolate 19 P. aeruginosa PER): 1.13
Mean FICI (P. aeruginosa; with Tig, isolate 20 P. aeruginosa KPC-2): 1.40
Mean FICI (P. aeruginosa; with Tig, isolate 21 P. aeruginosa KPC-2): 1.23
Mean FICI (P. aeruginosa; with Tob, isolate 16 P. aeruginosa Basal MICs): 1.11
Mean FICI (P. aeruginosa; with Tob, isolate 17 P. aeruginosa Derepressed AmpC): 1.05
Mean FICI (P. aeruginosa; with Tob, isolate 18 P. aeruginosa Derepressed AmpC): 0.89
Mean FICI (P. aeruginosa; with Tob, isolate 19 P. aeruginosa PER): 0.70
Mean FICI (P. aeruginosa; with Tob, isolate 20 P. aeruginosa KPC-2): 0.97
Mean FICI (P. aeruginosa; with Tob, isolate 21 P. aeruginosa KPC-2): 0.97
Mean FICI (S. aureus; with Lev, isolate 22 S. aureus Basal MICs): 0.98
Mean FICI (S. aureus; with Lev, isolate 23 S. aureus Basal MICs, Penicillinase+): 1.46
Mean FICI (S. aureus; with Lev, isolate 24 S. aureus Basal MICs, Penicillinase +): 1.21
Mean FICI (S. aureus; with Lzd, isolate 22 S. aureus Basal MICs): 1.43
Mean FICI (S. aureus; with Lzd, isolate 23 S. aureus Basal MICs, Penicillinase+): 1.10
Mean FICI (S. aureus; with Lzd, isolate 24 S. aureus Basal MICs, Penicillinase +): 1.32
Mean FICI (S. aureus; with Tig, isolate 22 S. aureus Basal MICs): 1.13
Mean FICI (S. aureus; with Tig, isolate 23 S. aureus Basal MICs, Penicillinase+): 1.27
Mean FICI (S. aureus; with Tig, isolate 24 S. aureus Basal MICs, Penicillinase +): 1.11
Mean FICI (S. aureus; with Tob, isolate 22 S. aureus Basal MICs): 1.60
Mean FICI (S. aureus; with Tob, isolate 23 S. aureus Basal MICs, Penicillinase+): 0.86
Mean FICI (S. aureus; with Tob, isolate 24 S. aureus Basal MICs, Penicillinase +): 0.84
Mean FICI (S. aureus; with Van, isolate 22 S. aureus Basal MICs): 1.23
Mean FICI (S. aureus; with Van, isolate 23 S. aureus Basal MICs, Penicillinase+): 0.99
Mean FICI (S. aureus; with Van, isolate 24 S. aureus Basal MICs, Penicillinase +): 1.24
Mean FICI (E. cloacae; with Col, isolate 2 E. cloacae Derepressed AmpC): 1.54
Mean FICI (E. cloacae; with Col, isolate 3 E. cloacae Derepressed AmpC): 1.12
Mean FICI (E. cloacae; with Lev, isolate 2 E. cloacae Derepressed AmpC): 0.99
Mean FICI (E. cloacae; with Lev, isolate 3 E. cloacae Derepressed AmpC): 0.81
Mean FICI (E. cloacae; with Tig, isolate 2 E. cloacae Derepressed AmpC): 0.93
Mean FICI (E. cloacae; with Tig, isolate 3 E. cloacae Derepressed AmpC): 1.05
Mean FICI (E. cloacae; with Tob, isolate 3 E. cloacae Derepressed AmpC): 0.73
